Where “and” joins values, the source holds several entries; their conditions need not be identical. Identical values can stand only once.
Key:
[1] = In-vitro percutaneous absorption of retinoic acid and triamcinolone acetonide from two cocoa butter vehicles (Franz cells, 48 h); settings: for % Abs (% Absorbed) / % Absorbed / total absorption: percent of applied dose
Text: The objective of this study was to measure the permeation of retinoic acid and triamcinolone acetonide through human skin in-vitro from two cocoa butter vehicles.
Two cocoa butter vehicles supplied by Hershey Foods Corporation were utilized: (1) pure cocoa butter and (2) partially hydrolyzed cocoa butter emulsion. Radioactive [11,12-^3 H] [retinoic acid (NET 920, Lot 2930-067, specific activity 1 mCi/ml) and [6,7-^3 H]-triamcinolone acetonide (NET 470, Lot 2904-170, specific activity 1 mCi/ml) were obtained from Dupont-New England Nuclear Corporation, Boston, Mass.
Each of the two cocoa butter vehicles was spiked separately with ^3 H-retinoic acid and ^3 H-Triamcinolone acetonide to give a total of four radioactive formulations for study. This was done by adding 25 μl (containing 25 μCi) of each tracer solution to approximately 1 gram of each vehicle and mixing with the tip of the dispensing micropipette. The pure cocoa butter vehicle was liquified by holding it under warm tap water prior to spiking. This was not done with the partially hydrolyzed cocoa butter emulsion. Neither formulation was used for three days after spiking to allow for diffusional mixing to take place. Final radioactive concentrations of each formulation were: […]
Human trunk skin without obvious signs of disease was used throughout. It was obtained within 24 hours of death, dermatomed to a thickness of approximately 0.25 mm, cryopreserved and sealed in water vapor-impermeableplastic bags. It was stored at -70° C. until the day of use then thawed by placing the bag in 37° C. water.
Skin from a single donor was cut into multiple sections large enough to fit on 0.8 cm^2 Franz cells. The dermal chamber was filled with isotonic saline, pH 7.4, into which a small magnetic stirring bar was placed. The epidermal chamber was left open to the ambient laboratory environment, approximately 22° C. and 40-60% RH. The cells were placed in a diffusion apparatus in which the dermal receptor solution was stirred magnetically at 600 RPM and its temperature maintained at 37° C.
To assure the integrity of each skin section, its permeability to tritiated water was determined before application of the test formulations. Following a brief (0.5-1 hour) equilibration period, 150 μl ^3 H2 O (specific activity 0.3 μCi/ml) was layered across the top of the skin section so that the entire exposed surface was covered. After 5 minutes the aqueous layer was removed and the surface of the skin carefully blotted dry. At t=0.5 hour the saline receptor phase was removed and analyzed for radioactive content by liquid scintillation counting. Skin specimens in which absorption of ^3 H2 O was less than 1.25 μl were considered acceptable.
Subsequently, each test formulation was applied at a target dose of 10 mg (cream) or 10 μl (butter). The cream formulation (partially hydrolyzed cocoa butter emulsion) was applied from the smooth, rounded-tip of a glass rod, the exact amount determined by weighing the rod before and after application. The butter formulation (pure cocoa butter) was first liquified under warm tap water, allowed to cool to room temperature, then applied with a 10 μl positive displacement micropipette prior to resolidifying. At 4, 8, 12, 24, 36 and 48 hours the receptor solution was removed in its entirety, replaced with fresh solution, and a 1 ml aliquot taken and assayed for radioactive content by liquid scintillation counting.
A 1 ml aliquot of each receptor sample containing ^3 H2 O, ^3 H-retinoic acid, or ^3 H-triamcinolone acetonide was placed in a 7 ml glass scintillation vial and gelled by the addition of 5 ml Opti-Fluor (Packard Instrument Co., Meriden, Conn.). These were counted in a Packard Tri-Carb Model 1900CA Liquid scintillation Analyzer equipped with internal standard and automatic quench correction.

[2] = currently available / commercial formulations, trunk skin; cited from earlier work
[3] = cream (partially hydrolyzed cocoa butter emulsion), 48 h, individual skin sections
[4] = cream, 48 h, average of three donors
[5] = cream, 48 h, average per skin donor (n=4), listed as RETINOIC ACID
[6] = cream, 48 h, average per skin donor (n=4), listed as Retinoic Acid

**Q.** For CC1=C(/C=C/C(C)=C/C=C/C(C)=C/C(=O)O)C(C)(C)CCC1 [retinoic acid], which “Penet (Total Penetration)” value [1, 3] is on record?
**A.** The value was 824.73 and 721.36 and 745.68 and 808.17 and 1027.61 and 945.49 and 550.30 and 524.77 and 919.75 and 670.20 and 859.80 and 1068.35.

**Q.** And the “% Abs (% Absorbed)” value [1, 3]?
**A.** Its value is 14.03% and 14.76% and 13.59% and 17.11% and 17.20% and 15.81% and 13.56% and 15.67% and 21.00% and 18.37% and 18.57% and 20.67%.

**Q.** What about the “Rate of absorption, R1” value ([1]; cream (partially hydrolyzed cocoa butter emulsion), sample R1, mid-t 2 h, individual skin sections) of the same molecule?
**A.** The value was 40.91 ng/cm^2 /hr and 36.94 ng/cm^2 /hr and 38.12 ng/cm^2 /hr and 45.28 ng/cm^2 /hr and 74.50 ng/cm^2 /hr and 68.54 ng/cm^2 /hr and 46.23 ng/cm^2 /hr and 49.65 ng/cm^2 /hr and 16.18 ng/cm^2 /hr and 50.09 ng/cm^2 /hr and 69.86 ng/cm^2 /hr and 77.41 ng/cm^2 /hr.

**Q.** And the “Rate of absorption, R3” value ([1]; cream (partially hydrolyzed cocoa butter emulsion), sample R3, mid-t 10 h, individual skin sections)?
**A.** Its value is 23.20 ng/cm^2 /hr and 19.99 ng/cm^2 /hr and 20.80 ng/cm^2 /hr and 24.15 ng/cm^2 /hr and 28.97 ng/cm^2 /hr and 25.18 ng/cm^2 /hr and 16.74 ng/cm^2 /hr and 15.77 ng/cm^2 /hr and 27.41 ng/cm^2 /hr and 19.26 ng/cm^2 /hr and 26.16 ng/cm^2 /hr and 30.74 ng/cm^2 /hr.

**Q.** And the “Rate of absorption, R4” value ([1]; cream (partially hydrolyzed cocoa butter emulsion), sample R4, mid-t 18 h, individual skin sections)?
**A.** The value was 17.83 ng/cm^2 /hr and 16.44 ng/cm^2 /hr and 14.68 ng/cm^2 /hr and 15.42 ng/cm^2 /hr and 27.53 ng/cm^2 /hr and 24.05 ng/cm^2 /hr and 12.20 ng/cm^2 /hr and 11.56 ng/cm^2 /hr and 26.23 ng/cm^2 /hr and 18.49 ng/cm^2 /hr and 25.34 ng/cm^2 /hr and 30.20 ng/cm^2 /hr.

**Q.** What about the “Rate of absorption, R5” value ([1]; cream (partially hydrolyzed cocoa butter emulsion), sample R5, mid-t 30 h, individual skin sections) of the same molecule?
**A.** The value was 14.89 ng/cm^2 /hr and 15.68 ng/cm^2 /hr and 17.30 ng/cm^2 /hr and 17.77 ng/cm^2 /hr and 15.95 ng/cm^2 /hr and 14.81 ng/cm^2 /hr and 8.32 ng/cm^2 /hr and 7.95 ng/cm^2 /hr and 15.24 ng/cm^2 /hr and 11.88 ng/cm^2 /hr and 12.50 ng/cm^2 /hr and 19.16 ng/cm^2 /hr.

**Q.** And the “Rate of absorption, R6” value ([1]; cream (partially hydrolyzed cocoa butter emulsion), sample R6, mid-t 42 h, individual skin sections)?
**A.** The value was 20.33 ng/cm^2 /hr and 14.24 ng/cm^2 /hr and 14.46 ng/cm^2 /hr and 17.62 ng/cm^2 /hr and 16.38 ng/cm^2 /hr and 15.16 ng/cm^2 /hr and 8.78 ng/cm^2 /hr and 7.68 ng/cm^2 /hr and 13.21 ng/cm^2 /hr and 9.49 ng/cm^2 /hr and 10.20 ng/cm^2 /hr and 14.22 ng/cm^2 /hr.

**Q.** What about the “Total Penetration” value [1, 4] of the same molecule?
**A.** The value was 805.52.

**Q.** What about the “Penet (Total Penetration)” value [1, 5] of the same molecule?
**A.** The value was 774.99 and 762.04 and 879.52.

**Q.** What about the “Penet (Total Penetration)” value [1, 6] of the same molecule?
**A.** The value was 879.52 and 762.04 and 774.99.

**Q.** And the “Rate of absorption, R1” value ([1]; cream, R1, mid-t 2 h, average of three donors)?
**A.** Its value is 55.06 ng/cm^2 /hr.

**Q.** And the “Rate of absorption, R1” value ([1]; cream, R1, mid-t 2 h, average per skin donor (n=4), listed as RETINOIC ACID)?
**A.** Its value is 40.32 ng/cm^2 /hr and 59.73 ng/cm^2 /hr and 65.14 ng/cm^2 /hr.

**Q.** What about the “Rate of absorption, R1” value ([1]; cream, R1, mid-t 2 h, average per skin donor (n=4), listed as Retinoic Acid) of the same molecule?
**A.** Its value is 65.14 ng/cm^2 /hr and 59.73 ng/cm^2 /hr and 40.32 ng/cm^2 /hr.

**Q.** And the “Rate of absorption, R3” value ([1]; cream, R3, mid-t 10 h, average of three donors)?
**A.** Its value is 23.20 ng/cm^2 /hr.

**Q.** What about the “Rate of absorption, R3” value ([1]; cream, R3, mid-t 10 h, average per skin donor (n=4), listed as RETINOIC ACID) of the same molecule?
**A.** The value was 22.04 ng/cm^2 /hr and 21.67 ng/cm^2 /hr and 25.89 ng/cm^2 /hr.

**Q.** What about the “Rate of absorption, R3” value ([1]; cream, R3, mid-t 10 h, average per skin donor (n=4), listed as Retinoic Acid) of the same molecule?
**A.** The value was 25.89 ng/cm^2 /hr and 21.67 ng/cm^2 /hr and 22.04 ng/cm^2 /hr.

**Q.** What about the “Rate of absorption, R4” value ([1]; cream, R4, mid-t 18 h, average of three donors) of the same molecule?
**A.** The value was 20.00 ng/cm^2 /hr.

**Q.** What about the “Rate of absorption, R4” value ([1]; cream, R4, mid-t 18 h, average per skin donor (n=4), listed as RETINOIC ACID) of the same molecule?
**A.** The value was 16.09 ng/cm^2 /hr and 18.83 ng/cm^2 /hr and 25.07 ng/cm^2 /hr.

**Q.** And the “Rate of absorption, R4” value ([1]; cream, R4, mid-t 18 h, average per skin donor (n=4), listed as Retinoic Acid)?
**A.** Its value is 25.07 ng/cm^2 /hr and 18.83 ng/cm^2 /hr and 16.09 ng/cm^2 /hr.

**Q.** What about the “Rate of absorption, R5” value ([1]; cream, R5, mid-t 30 h, average of three donors) of the same molecule?
**A.** Its value is 14.29 ng/cm^2 /hr.

**Q.** What about the “Rate of absorption, R5” value ([1]; cream, R5, mid-t 30 h, average per skin donor (n=4), listed as RETINOIC ACID) of the same molecule?
**A.** Its value is 16.41 ng/cm^2 /hr and 11.76 ng/cm^2 /hr and 14.70 ng/cm^2 /hr.

**Q.** And the “Rate of absorption, R5” value ([1]; cream, R5, mid-t 30 h, average per skin donor (n=4), listed as Retinoic Acid)?
**A.** The value was 14.70 ng/cm^2 /hr and 11.76 ng/cm^2 /hr and 16.41 ng/cm^2 /hr.

**Q.** And the “Rate of absorption, R6” value ([1]; cream, R6, mid-t 42 h, average of three donors)?
**A.** The value was 13.47 ng/cm^2 /hr.

**Q.** And the “Rate of absorption, R6” value ([1]; cream, R6, mid-t 42 h, average per skin donor (n=4), listed as RETINOIC ACID)?
**A.** Its value is 16.62 ng/cm^2 /hr and 12.00 ng/cm^2 /hr and 11.78 ng/cm^2 /hr.

**Q.** What about the “Rate of absorption, R6” value ([1]; cream, R6, mid-t 42 h, average per skin donor (n=4), listed as Retinoic Acid) of the same molecule?
**A.** Its value is 11.78 ng/cm^2 /hr and 12.00 ng/cm^2 /hr and 16.62 ng/cm^2 /hr.

**Q.** What about the “% Absorbed / total absorption” value [1, 4] of the same molecule?
**A.** The value was 16.7%.

**Q.** What about the “% Absorbed / total absorption” value ([1]; cream, 48 h, average of three donors, listed as Retinoic Acid) of the same molecule?
**A.** The value was 16.69%.

**Q.** And the “% Abs (% Absorbed)” value [1, 5]?
**A.** Its value is 14.87% and 15.56% and 19.65%.

**Q.** What about the “% Abs (% Absorbed)” value [1, 6] of the same molecule?
**A.** The value was 19.65% and 15.56% and 14.87%.

**Q.** What about the “difference between partially hydrolyzed cocoa butter emulsion and pure cocoa butter as delivery vehicle” value ([1]; in words) of the same molecule?
**A.** Its value is “no appreciable difference”.

**Q.** What about the average absorption ([1]; with cocoa butter and partially hydrolyzed cocoa butter emulsion (both vehicles)) of the same molecule?
**A.** Its average absorption is 16.5%.

**Q.** What about the “total absorption from currently available formulations” value [2] of the same molecule?
**A.** Its value is 1-5 % of the dose.
